Where a SMILES comes first, the peptide text is derived from it. The star is where a group is joined. Cbz = O=C(OCc1ccccc1)*; CH2F = FC*
Columns and labels:
primary AML specimens = assay: Viability of primary AML specimens, Annexin V/7-AAD flow cytometry; type: cell-based, human; conditions: for Rapid kinetics: cell death kinetics; for Cytotoxic AML: primary AML specimens
Method: (§1) The cells were isolated and processed as described. […] All drug treatments were performed in triplicate. […] Total viable cell numbers were determined using a flow cytometric apoptosis assay as described. Briefly, after 18 h of treatment, specimens were labeled with anti-CD34-PE (Becton Dickinson, San Jose, Calif.) for 20 minutes. […] The total number of events collected was 100,000. The percent viable cells was defined as AnnexinV^neg/7-AAD^neg cells on total (ungated) cells and on gates set for CD34^+ populations. • [1] Jordan, C. T., et al., The interleukin-3 receptor alpha chain is a unique marker for human acute myelogenous leukemia stem cells. Leukemia, 2000. 14(10): p. […] Lansdorp, P. M. and W. Dragowska, Long-term erythropoiesis from constant numbers of CD34+ cells in serum-free cultures initiated with highly purified progenitor cells from human bone marrow. […] Guzman, M. L., et al., Nuclear factor-kappaB is constitutively activated in primitive human acute myelogenous leukemia cells. […] 98(8): p.

[1] = test system: normal specimens (BM, CB, MPB); assay: Viability of normal specimens (BM, CB, MPB), Annexin V/7-AAD; type: cell-based, human; conditions: normal specimens
Method: as §1

[2] = pre-treated 1 h prior to 20 μM TDZD-8, viability at 24 hours
[3] = listed as 2-chloro-1-(4,5-dibromo-thiophen-2-yl-ethanone)

Row | SMILES | Rapid kinetics (primary AML specimens) | Cytotoxic AML (primary AML specimens) | Cytotoxic Normal [1] | effect of pretreatment on cell death induced by TDZD-8 (primary AML specimens; [2]) | Cytotoxic AML (primary AML specimens; [3]) | Cytotoxic Normal [1, 3] | abrogation of TDZD-8 induced death by pan-caspase inhibitor (primary AML specimens; [2])
1 | O=C1NC(=O)C(=Cc2ccc3c(c2)OC(F)(F)O3)S1 [5-(2,2-Difluoro-benzo[1,3]dioxol-5-ylmethylene)-thiazolidine-2,4-dione] | No | – | – | – | – | – | –
2 | O=C1CSC(=O)N1 [2,4-thiazolidinedione] | No | No | No | – | – | – | –
3 | O=c1sn(Cc2ccccc2)c(=S)n1Cc1ccccc1 [2,4-Dibenzyl-5-oxothiadiazolidine-3-thione] | No | No | No | – | – | – | –
4 | COc1ccc(CNC(=O)Nc2ncc([N+](=O)[O-])s2)cc1 [AR-A014418] | No | No | No | – | – | – | –
5 | CC(=O)N[C@@H](CS)C(=O)O [NAC, N-acetyl-cysteine] | – | – | – | completely blocked the cell death response | – | – | –
6 | Cc1c(C)c2c(c(C)c1O)CCC(C)(COc1ccc(CC3SC(=O)NC3=O)cc1)O2 (stereo not drawn) [Troglitazone] | – | Yes | Yes | – | – | – | –
7 | O=C(CCl)c1cc(Br)c(Br)s1 [2-Chloro-1-(4,5-dibromo-thiophen-2-yl)-ethanone] | No | Yes | Yes | – | could induce AML cell death | toxic to normal cells | –
8 | O=C1NC(=O)C(Cc2ccc(OCCN3COc4ccccc4C3=O)cc2)S1 (stereo not drawn) [DRF 2519] | No | No | No | – | – | – | –
9 | Cn1cc(C2=C(c3ccc(Cl)cc3Cl)C(=O)NC2=O)c2ccccc21 [SB-216763] | No | No | No | – | – | – | –
10 | O=C1Nc2cc(Br)ccc2/C1=C1/Nc2ccccc2/C1=N\O [BIO] | – | No | No | – | – | – | –
11 | CC(NC(=O)C(NC(=O)OCc1ccccc1)C(C)C)C(=O)NC(CC(=O)O)C(=O)CF (stereo not drawn) [Z-VAD] (Cbz-Val-Ala-Asp-CH2F; configuration not given here) | – | – | – | – | – | – | no abrogation of death was observed
12 | CCOc1ccc(C=C2SC(=O)N(CCN)C2=O)cc1.Cl [-(2-Aminoethyl)-5-((4-ethoxyphenyl)methylene)-2,4-thiazolidinedione, HCl] | No | No | No | – | – | – | –
13 | Nc1cccc(-c2cc3c(Oc4cccc(O)c4)ncnc3[nH]2)c1 [TWS119] | No | No | No | – | – | – | –
14 | O=C1Cc2c([nH]c3ccc(Br)cc23)-c2ncccc2N1 [1-Azakenpaullone] | No | No | No | – | – | – | –
15 | Cc1cc(Nc2nc(-c3ccccc3)nc3ccccc23)n[nH]1 [(5-Methyl-1H-pyrazol-3-yl)-(2-phenylquinazolin-4-yl)amine] | No | No | No | – | – | – | –
